Experimental data from patent publication US9115061B2, “Naphthalene-based inhibitors of anti-apoptotic proteins” (BURNHAM INSTITUTE FOR MEDICAL RESEARCH, priority 2007, dated 2015).

Experiments:
MCF7 cells = assay: XTT dye reduction assay; assay type: cell-based, human; conditions: three days
Description: (§1) The effects of the compounds on viability of tumor cells in culture were monitored by using XTT assays with MCF7 and ZR75-1 cell lines. MCF7 cells were grown in DMEM containing 10% fetal bovine serum, penicillin/streptomycin, supplemented with 10^−10 M insulin, 1 mM sodium pyruvate and glutamine. ZR75-1 cells were grown in RPMI containing 10% fetal bovine serum, penicillin/streptomycin, supplemented with HEPES buffer, 1 mM sodium pyruvate and glutamine. Cells were regularly tested for mycoplasma contamination. Cells were seeded triplicates at an initial cell density of 1,000 cells per well. Blank wells received no cells.
(§2) Relative numbers of viable cells was determined by XTT assay. Briefly, in a 96-well plate, we added 50 μl of a mixture of 1 mg/ml of XTT (2,3-bis(2-methoxy-4-nitro-5-sulfophenyl)-5-[(phenylamino)carbonyl]-2H-tetrazolium hydroxide) (Polysciences, Washington, Pa.) containing 0.025 mM PMS (phenazine methosulfate) to each well. The 96-well plates were reincubated for an additional 4 hours to allow for XTT formazan production. Then, the contents of each plate were mixed and optical densities were determined at a wavelength of 450 nm (OD450). Net OD450 was determined after subtracting OD450 of blank wells. Low-passage HeLa cells (between passage number 10 and 20) were transfected with pcDNA3-BCL-XL or control pcDNA3 plasmids using Lipofectamine Plus reagent (Invitrogen) and selected in medium containing 800 μg/ml of G418. Immunoblot analysis of BCL-XL was accomplished as previously described.

ZR75-1 cells = assay: XTT dye reduction assay; assay type: cell-based, human; conditions: three days
Description: as §1, §2

BCL-XL = BCL-XL (Homo sapiens (Human), UniProt Q07817); assay: Fluorescence polarization assay with fluorescein-labeled Bad peptide; assay type: binding; conditions: Table 5
Chain of BCL-XL (Q07817 whole entry): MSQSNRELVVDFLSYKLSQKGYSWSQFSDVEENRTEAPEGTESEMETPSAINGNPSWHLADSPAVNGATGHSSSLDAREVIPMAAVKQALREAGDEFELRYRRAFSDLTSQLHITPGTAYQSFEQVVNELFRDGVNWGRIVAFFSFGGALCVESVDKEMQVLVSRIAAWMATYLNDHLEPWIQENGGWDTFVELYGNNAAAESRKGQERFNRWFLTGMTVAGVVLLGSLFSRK
Description: FP A assays were conducted with a fluorescein-labeled Bad peptide (NL […] Corporation, Dublin, Calif.) using a LJL Analyst HT Molecular Devices Co., Sunnyvale, Calif.). […] The tubes were incubated for 5 minutes at room temperature and 20 μl each of reaction mixture was transferred to 96-well black PS, HE Microplate (LJL Biosystems Co). All assays were performed in quadruplicate, with blank wells receiving no Gossypol. […] Controls included dose-responses measurements in absence of the proteins, to assess any interactions between the compounds and the FITC-BH3 peptide. Eventual effects were taken into account by subtraction.

IC50, cell viability MCF7 (MCF7 cells): did not show appreciable activity
IC50 (BCL-XL): 2.2 µM
SMILES: O=c1c(O)cccc2cc(O)c(O)c(O)c12 [Purpurogallin]
IC50, cell viability ZR75-1 (ZR75-1 cells): did not show appreciable activity
